B1: proBDNF: murine proBDNF collected from supernatants of transfected 293 cells (protein)
chain: APMKEVNVHGQGNLAYPGVRTHGTLESVNGPRAGSRGLTTTSLADTFEHVIEELLDEDQKVRPNEENHKDADLYTSRVMLSSQVPLEPPLLFLLEEYKNYLDAANMSMRVRRHSDPARRGELSVCDSISEWVTAADKKTAVDMSGGTVTVLEKVPVSKGQLKQYFYETKCNPMGYTKEGCRGIDKRHWNSQCRTTQSYVRALTMDSKKRIGWRFIRIDTSCVCTLTIKRGR

Assays:
[1] = system: E15 DIV3 mouse hippocampal neurons; experiment: proNT-induced growth cone collapse in cultured hippocampal neurons (live imaging and immunofluorescence); assay type: cell-based; conditions: for growth cone collapse: p75NTR-positive cells, 20 min exposure, 10 ng/ml proNGF, 10 ng/ml proBDNF with K252a, 5 ng/ml NGF
Description: To assay which pathways are involved in filopodial collapse, 5-10 ng/ml proNGF, 10 ng/ml proBDNF, 25-50 ng/ml BDNF (Peprotech) or 25-100 ng/ml NGF (Harlan) was added to E15 primary hippocampal neurons for 20 min before fixation. In some cases, cells were pretreated with 100 nM K-252a (Calbiochem) for 20 min, 100 nM Gö6976 (Calbiochem) for 1 hour, 5 μM EHT1864 (Sigma) for 30 min or 100 nM ITX3 (ChemBridge Corporation, cat. no. 6007262) for 45 min. To block SorCS2, cells were incubated with 20 μg/ml anti-SorCS2 or control IgG for 20 min on ice before proNGF addition at 37° C.
DIV3 hippocampal neurons were fixed in 4% paraformaldehyde/20% sucrose for 10 min. The fixative was quenched with 50 mM NH4Cl in PBS for 5 min and cells were permeabilized with 0.1% TritonX-100 in PBS for 2 min. Alternatively, cells were fixed with ice-cold methanol for 5 min. Coverslips were blocked with 10% normal donkey serum, 2% bovine serum albumin and 0.25% fish skin gelatin in Tris-buffered saline for 30 min, incubated with primary antibodies diluted in blocking solution for 30 min, washed three times with Tris-buffered saline/0.25% fish skin gelatin, incubated with secondary antibodies mixed with Hoechst in blocking buffer for additional 30 min, washed and mounted using Mowio1488. Cells were imaged using a LSM510 laser-scanning confocal microscope equipped with a 40× Plan Neofluor NA1.3 DIC oil-immersion objective (Carl Zeiss Microimaging). Images were processed using LSM510 software (Zeiss) and ImageJ (NIH).
Cells were plated on gridded glass bottom dishes (MatTek Corporation) and imaged at DIV3 in phenol red-free Neurobasal medium (Invitrogen) supplemented with 30 mM HEPES-NaOH, pH7.4 using an Olympus IX71 inverted microscope driven by IPLab software (BD Biosciences) and equipped with a 60× PlanApoN objective (NA 1.42), a Hamamatsu EM-CCD camera and a heated stage maintained at 37° C., or driven by softWoRX software (version 3.7.1, DeltaVision), and equipped with a CoolSnap HQ2 camera (Photometrics) and an environmental chamber maintained at 37° C. Images were taken every 15 seconds. After live imaging cells were fixed, counterstained for p75, located by grid number and examined for p75 expression. All movies were exported and processed using IPLab (BD Biosciences), softWoRX (version 3.7.1, DeltaVision) and ImageJ (NIH) software. Filopodia length and speed were both analyzed using ImageJ (NIH) software. For this, two times ten consecutive frames, spaced 5-10 min apart, were analyzed before and again after treatment. In the length analysis, a line was drawn along an individual filopodium and measured at every time point, and the measurements were averaged before and after treatment. For the speed analysis, the filopodial tip was tracked using the ImageJ Manual Tracking plugin. Up to four individual filopodia were analyzed per movie, and a minimum of four movies taken from separate experiments were analyzed per condition.
Primary hippocampal and cortical neurons were isolated from E15 C57BL/6 mouse embryos as previously described (PEREIRA, D. B. et al., Journal of Neuroscience 27:4859-4869 (2007)). Briefly, neurons were dissociated by incubation with 0.05% trypsin at 37° C. for 8 min followed by trituration with fire-polished glass Pasteur pipettes. Cells were plated on poly-D-lysine coated dishes and grown in Neurobasal medium containing B27, 0.5 mM glutamine (all Invitrogen) and 10 μM 5-fluorodeoxyuridine. Hippocampal neurons were transfected at DIV2 using Lipofectamine2000 (Invitrogen). For coverslips in a 24-well plate, 0.5 μg plasmid were mixed with 0.5 μl Lipofectamine2000, and for glass bottom dishes, 1.5 μg plasmid were mixed with 1.5 μl Lipofectamine2000. The complexes were added to the cells for 30-45 min, and then neurons were placed back into preconditioned media until analysis the following day. […]

p75^NTR/SorCS2 and Trio = molecular target: T1, p75^NTR/SorCS2 and Trio (Homo sapiens, UniProt P08138+Q96PQ0); experiment: Co-immunoprecipitation of Trio with p75NTR/SorCS2 after proNT treatment of HT1080 cells; assay type: cell-based; conditions: HT1080 cells expressing p75NTR and SorCS2; 20 min incubation; IP anti-p75NTR, Western blot
T1 construct: HA; expressed in transfected cells; host or cells: HT-1080 cells
T1 sequence (P08138 29-427): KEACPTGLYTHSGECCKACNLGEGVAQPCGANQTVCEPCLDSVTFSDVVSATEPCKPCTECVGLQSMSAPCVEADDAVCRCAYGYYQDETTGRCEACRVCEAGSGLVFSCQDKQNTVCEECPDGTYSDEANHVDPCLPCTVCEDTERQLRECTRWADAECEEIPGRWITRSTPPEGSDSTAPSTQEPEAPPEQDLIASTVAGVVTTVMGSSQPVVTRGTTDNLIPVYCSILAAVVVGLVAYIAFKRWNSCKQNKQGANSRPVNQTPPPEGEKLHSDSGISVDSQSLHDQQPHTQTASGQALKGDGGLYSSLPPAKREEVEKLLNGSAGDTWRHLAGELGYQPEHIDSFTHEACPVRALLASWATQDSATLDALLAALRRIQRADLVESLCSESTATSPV
T1 sequence (Q96PQ0 70-1159 limits assumed): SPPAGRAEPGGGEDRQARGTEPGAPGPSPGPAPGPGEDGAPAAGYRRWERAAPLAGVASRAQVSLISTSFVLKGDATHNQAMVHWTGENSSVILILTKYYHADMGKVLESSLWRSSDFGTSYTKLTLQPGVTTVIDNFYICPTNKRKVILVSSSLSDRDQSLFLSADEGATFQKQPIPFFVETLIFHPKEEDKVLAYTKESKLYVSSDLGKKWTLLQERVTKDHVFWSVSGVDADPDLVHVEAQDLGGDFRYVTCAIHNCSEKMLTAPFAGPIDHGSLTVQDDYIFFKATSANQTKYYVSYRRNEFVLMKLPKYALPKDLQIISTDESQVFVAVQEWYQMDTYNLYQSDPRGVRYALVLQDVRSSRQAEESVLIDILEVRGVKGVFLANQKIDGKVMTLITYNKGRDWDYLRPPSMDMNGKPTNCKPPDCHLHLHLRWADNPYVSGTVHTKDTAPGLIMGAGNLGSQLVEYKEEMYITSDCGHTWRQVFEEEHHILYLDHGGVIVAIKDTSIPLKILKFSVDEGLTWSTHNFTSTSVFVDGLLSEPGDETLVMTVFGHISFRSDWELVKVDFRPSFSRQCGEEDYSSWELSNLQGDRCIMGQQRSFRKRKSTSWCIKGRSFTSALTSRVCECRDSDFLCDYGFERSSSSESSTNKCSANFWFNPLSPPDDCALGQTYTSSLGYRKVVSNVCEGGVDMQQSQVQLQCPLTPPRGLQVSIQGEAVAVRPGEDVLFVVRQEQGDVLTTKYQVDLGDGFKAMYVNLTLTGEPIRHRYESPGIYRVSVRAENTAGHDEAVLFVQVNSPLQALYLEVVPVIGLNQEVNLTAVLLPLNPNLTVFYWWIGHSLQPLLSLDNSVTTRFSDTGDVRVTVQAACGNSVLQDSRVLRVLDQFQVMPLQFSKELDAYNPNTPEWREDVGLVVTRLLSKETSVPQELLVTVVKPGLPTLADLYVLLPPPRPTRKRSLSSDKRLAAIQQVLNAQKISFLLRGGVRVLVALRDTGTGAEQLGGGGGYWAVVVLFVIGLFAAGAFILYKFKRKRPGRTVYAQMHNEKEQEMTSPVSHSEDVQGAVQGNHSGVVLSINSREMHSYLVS
Description: HT-1080 cells were transfected with HA-p75^NTR and myc-SorCS2. 24-48 hours later, cells were treated with 25 ng/ml proNGF for 20 min where indicated. Cells were lysed with lysis buffer (50 mM Tris-HCl pH 8.0, 140 mM NaCl, 2 mM EDTA, 1% NP40, 10% glycerol) supplemented with protease inhibitors and complexes were immunoprecipitated using anti-HA agarose. To map the Trio domain required for the interaction with p75^NTR, 293T cells were transfected with HA-p75^NTR and constructs of the individual Trio domains. After 24 hours, cells were lysed as described above, and complexes were immunoprecipitated using anti-HA agarose or anti-Myc agarose as indicated.

Molecule | growth cone collapse in neurons from p75NTR-/- mice ([1]; live imaging of LifeAct-RFP transfected neurons from p75 null mice (not shown)) | localisation of endogenous Trio ([1]; p75NTR-positive E15 DIV3 hippocampal neurons, immunostaining) | growth cone collapse [1] | interaction between p75NTR/SorCS2 and Trio (p75^NTR/SorCS2 and Trio)
proNGF: proneurotrophin precursor of nerve growth factor, produced in Sf9 cells and purified | growth cone collapse was never observed | redistribution of Trio along the neuritis | comparable in inducing growth cone collapse | markedly reduced the interaction
B1 |  |  | comparable in inducing growth cone collapse | markedly reduced the interaction
